Patent publication US10874686B2, “Anthranilyl-adenosinemonosulfamate analogs and uses thereof” (Memorial Sloan-Kettering Cancer Center, priority 2015, dated 2020)

Columns and labels:
P. aeruginosa PqsA = P. aeruginosa PqsA (Pseudomonas aeruginosa, UniProt Q9I4X3); assay: PqsA inhibition, spectrophotometric assay with recombinant PqsA (anthranilyl-CoA formation at 365 nm); type: biochemical; settings: for PqsA inhibition, potency in words: short time scale of the assay; for IC50: IC50 for inhibition of P. aeruginosa PqsA; for inhibition at 10 µM: read-out: % inhibition at 10 μM of P. aeruginosa PqsA, 10 μM
Method: PqsA inhibitors were evaluated using a quantitative spectrophotometric assay with recombinant PqsA, detecting formation of anthranilyl-CoA at 365 nm. See, e.g., Coleman et al. (2008) J. Bacteriol. 190, 1247. […] See, e.g., Morrison et al. Biochim. Biophys. Acta, Enzymol. 185, 269-286; Williams et al. (1979) Methods Enzymol. 63, 437. […] See, e.g., Qiao et al. (2007) J. Am. Chem. Soc. 129, 6350.
Reactions were performed at 37° C. in a 0.5 mL volume in a Varian Cary 100 UV-visible spectrophotometer with Cary WinUV software. Reaction mixtures contained 100 mM HEPES, pH 8.0, 0.2 mM dithiothreitol, 2 mM MgCl2, ˜3.3 μg PqsA protein (˜60 nM final), and depending on which substrate varied, 1 mM ATP (disodium salt), 0.5 mM coenzyme A (tri-lithium salt), 0.5 mM sodium anthranilate, and inhibitor (usually as a DMSO stock solution). Reactions were blanked and preincubated with all components except anthranilate at 37° C. for 1 min, then initiated by addition of anthranilate. Formation of anthraniloyl-CoA was monitored ance at 365 nm (ε=5.5 mM−1 cm−1) for 1 min. Data were analyzed using GraphPad Prism 6 software.

[1] = tested on: HHQ and PQS quinolone production in P. aeruginosa strain PA14; assay: Inhibition of HHQ and PQS quinolone production in P. aeruginosa strain PA14 (LC-MS/MS); type: cell-based, Pseudomonas aeruginosa; settings: 1.5 mM, HHQ 8 h, PQS 20 h
Method: The production of PQS and HHQ by strain PA14 was performed in triplicate in 14-mL round bottom falcon tubes containing 3-mL cultures in LB medium. Tubes were incubated at 37° C. in an orbital shaker at 225 rpm. Cultures were inoculated with 15-hour culture in LB in order to obtain a starting OD600=0.05, with or without inhibitors added. For PQS and HHQ analysis, a 20 μl aliquot was taken at time points as indicated. Each sample was diluted with 180 μL of methanol containing the internal standard (100 μM of d^4-PQS or d^4-HHQ) and 2% acetic acid. The solution was then vertexed and centrifuged at 13,000 g for 5 minutes, and the supernatant was transferred to a 96-well plates for LC-MS/MS analysis. Bacterial growth was measured by recording OD600 at 20 h to provide the data in FIG. 7A.
Liquid chromatography tandem mass spectrometry (LC-MS/MS) was carried out on an Agilent Technologies 6410 triple quad LC-MS/MS system with autosampler in electrospray ionization (ESI) mode, with an Agilent Zorbax Eclipse XDB-C18 reverse phase column (50×4.6 mm, 5 μm) using a flow rate of 0.5 mL/minute and an isocratic mobile phase of 60% CH3CN in 0.1% aqueous formic acid over 5 minutes. Positive electrospray in MRM mode was employed to quantify PQS and HHQ, using the ion transitions HHQ 244 to 159, d^4-HHQ 248 to 163, PQS 260 to 175, and d^4-PQS 264 to 179; shown in Table E3.
PqsA inhibitors 1-5 were evaluated for their ability to inhibit HHQ and PQS quinolone production in P. aeruginosa strain PA14 (FIG. 6). HHQ and PQS concentrations were determined by LC-MS/MS quantitation relative to deuterated internal standards. 6-Fluoroanthranilate (6FABA), a substrate analogue reported previously to inhibit quinolone production at millimolar concentrations, was used as a positive control. Compounds were initially tested at 1.5 mM concentration, and HHQ and PQS were quantified at 8 and 20 hours, respectively. These time points were selected based on an initial time course study of quinolone production in the absence of inhibitors, with HHQ or PQS production peaking at these respective time points. […] This could be due to differences in cell penetration, stability, and/or target specificity. Finally, because inhibitors of the quinolone quorum sensing pathway should not impact bacterial growth, we confirmed that none of the six inhibitors above inhibited growth over 20 h (FIG. 7A). Encouraged by the ability of anthranilyl-AMS (1) and anthranilyl-AMSN (2) to inhibit HHQ and PQS quinolone production, the activity of these two inhibitors and 6FABA were investigated in greater detail. In untreated controls, HHQ and PQS production peaked at 8 and 20 hours, respectively. Previously reported time course studies have similarly shown that HHQ levels peak at 6-8 hours while PQS levels continue to rise. See, e.g., Deziel et al. (2004) Proc. Natl. Acad. Sci. U.S.A 101, 1339; Kesarwani et al. (2011) PLoS Pathog. 7, e1002192. All three inhibitors were able to decrease quinolone production in a dose- and time-dependent manner (FIG. 2A). […] Such a perturbation might still be sufficient to impact P. aeruginosa virulence in vivo. […] See, e.g., Lesic et al. (2007) PLoS Pathog. 3, e126.

PqsA = PqsA (Pseudomonas aeruginosa, UniProt Q9I4X3); settings: previous biochemical studies; read-out: Km as PqsA substrate; cited from earlier work

SMILES	IC50 (P. aeruginosa PqsA) [nM]	inhibition at 10 µM (P. aeruginosa PqsA) [%]	also measured
Nc1ncnc2c1ncn2[C@@H]1O[C@H](COS(=O)(=O)NC(=O)c2ccccc2)[C@@H](O)[C@H]1O [Benzoyl-AMS, reference compound]			PqsA inhibition, potency in words (P. aeruginosa PqsA): somewhat weaker inhibitor; inhibition of quinolone production, in words [1]: less potent inhibitors of quinolone production
Nc1ccccc1C(=O)NS(=O)(=O)OC[C@H]1O[C@@H](n2cnc3c(N)ncnc32)[C@H](O)[C@@H]1O [DST-Pqs1]	309	98.6 ± 2.3	
Nc1ccccc1C(=O)NS(=O)(=O)NC[C@H]1O[C@@H](n2cnc3c(N)ncnc32)[C@H](O)[C@@H]1O [DST-Pqs2]	213	100	
Nc1ncnc2c1ncn2[C@@H]1O[C@H](COS(=O)(=O)NC(=O)c2cccnc2Cl)[C@@H](O)[C@H]1O [DST-Pqs8]		10.3 ± 5.3	
Nc1cc2ccccc2cc1C(=O)NS(=O)(=O)OC[C@H]1O[C@@H](n2cnc3c(N)ncnc32)[C@H](O)[C@@H]1O [DST-Pqs9]		< 1	
Nc1cc(C(F)(F)F)ccc1C(=O)NS(=O)(=O)OC[C@H]1O[C@@H](n2cnc3c(N)ncnc32)[C@H](O)[C@@H]1O [DST-Pqs10]		1.1 ± 2.6	
Nc1cc(F)ccc1C(=O)NS(=O)(=O)OC[C@H]1O[C@@H](n2cnc3c(N)ncnc32)[C@H](O)[C@@H]1O [DST-Pqs11]	107	100	
Nc1cccc(F)c1C(=O)NS(=O)(=O)OC[C@H]1O[C@@H](n2cnc3c(N)ncnc32)[C@H](O)[C@@H]1O [DST-Pqs12]	516	100	
Nc1c(Cl)cccc1C(=O)NS(=O)(=O)OC[C@H]1O[C@@H](n2cnc3c(N)ncnc32)[C@H](O)[C@@H]1O [DST-Pqs13]	1230	97.2 ± 1.2	
Nc1cc(Cl)ccc1C(=O)NS(=O)(=O)OC[C@H]1O[C@@H](n2cnc3c(N)ncnc32)[C@H](O)[C@@H]1O [DST-Pqs14]	828		
Nc1ccc(Cl)cc1C(=O)NS(=O)(=O)OC[C@H]1O[C@@H](n2cnc3c(N)ncnc32)[C@H](O)[C@@H]1O [DST-Pqs15]	1520	97.3 ± 0.9	
Nc1cccc(Cl)c1C(=O)NS(=O)(=O)OC[C@H]1O[C@@H](n2cnc3c(N)ncnc32)[C@H](O)[C@@H]1O [DST-Pqs16]	552	100	
Nc1ccccc1C(=O)NS(=O)(=O)OC[C@H]1O[C@@H](n2cnc3c(NC4CC4)ncnc32)[C@H](O)[C@@H]1O [DST-Pqs17]		1.3 ± 3	
CN(C)c1ncnc2c1ncn2[C@@H]1O[C@H](COS(=O)(=O)NC(=O)c2ccccc2N)[C@@H](O)[C@H]1O [DST-Pqs18]		21.3 ± 1.9	
CNc1ncnc2c1ncn2[C@@H]1O[C@H](COS(=O)(=O)NC(=O)c2ccccc2N)[C@@H](O)[C@H]1O [DST-Pqs19]	39200	32.1 ± 2.8	
NCc1ccccc1Nc1nc(N)c2ncn([C@@H]3O[C@H](COS(=O)(=O)NC(=O)c4ccccc4N)[C@@H](O)[C@H]3O)c2n1 [DST-Pqs27]	5240	84.8 ± 1.5	
NCc1ccc(Nc2nc(N)c3ncn([C@@H]4O[C@H](COS(=O)(=O)NC(=O)c5ccccc5N)[C@@H](O)[C@H]4O)c3n2)cc1 [DST-Pqs28]			% inhibition at 10 μM of P. aeruginosa PqsA (P. aeruginosa PqsA): 9.5 ± 3.9%

SMILES	IC50 (P. aeruginosa PqsA) [nM]	inhibition at 10 µM (P. aeruginosa PqsA) [%]	also measured
NCc1ccc(Nc2nc(N)c3ncn([C@@H]4O[C@H](COS(=O)(=O)NC(=O)c5ccccc5N)[C@@H](O)[C@H]4O)c3n2)cc1 [DST-Pqs29]			% inhibition at 10 μM of P. aeruginosa PqsA (P. aeruginosa PqsA): 76.0 ± 1.3%
Nc1ncnc2c1ncn2[C@@H]1O[C@H](COS(=O)(=O)NC2(c3ccccc3F)COC2)[C@@H](O)[C@H]1O [DST-Pqs30]		< 1	
Nc1ncnc2c1ncn2[C@@H]1O[C@H](COS(=O)(=O)NC2(c3ccccc3O)COC2)[C@@H](O)[C@H]1O [DST-Pqs31]		< 1	
Nc1ncnc2c1ncn2[C@@H]1O[C@H](COS(=O)(=O)NC2(c3ccccc3)COC2)[C@@H](O)[C@H]1O [DST-Pqs32]		2.3 ± 0.9	
Nc1ccccc1C1(NS(=O)(=O)OC[C@H]2O[C@@H](n3cnc4c(N)ncnc43)[C@H](O)[C@@H]2O)COC1 [DST-Pqs33]		4.6 ± 2.9	
Nc1ccccc1C(=O)NS(=O)(=O)OC[C@H]1O[C@@H](n2cnc3c(N)ncnc32)[C@H](N)[C@@H]1N [JI-C-2013-189]	7220	77.8 ± 0.2	
Nc1ccccc1C(=O)NS(=O)(=O)OC[C@H]1O[C@@H](n2cnc3c(N)nc(Nc4ccccc4)nc32)[C@H](O)[C@@H]1O [JI-C-2013-451]	2070	95.1 ± 0.2	
Nc1ccccc1C(=O)NS(=O)(=O)OC[C@H]1O[C@@H](n2cnc3c(N)nc(-c4ccccc4)nc32)[C@H](O)[C@@H]1O [JI-C-2013-454]	25000	42.7 ± 0.2	
Nc1ccccc1C(=O)NS(=O)(=O)OC[C@H]1O[C@@H](n2cnc3c(N)nc(C#Cc4ccccc4)nc32)[C@H](O)[C@@H]1O [JI-C-2013-456]	1460	95.9 ± 0.4	
Nc1ccccc1C(=O)NS(=O)(=O)OC[C@H]1O[C@@H](n2cnc3c(N)ncnc32)C[C@@H]1O [JI-C-2014-008]	444	99.8 ± 0.2	
Nc1ccccc1C(=O)NS(=O)(=O)OC[C@@H]1CC[C@H](n2cnc3c(N)ncnc32)O1 [JI-C-2014-025]	5000	91.2 ± 0.9	
Nc1ccccc1C(=O)O [anthranilate]			Km (PqsA): 8 µM
O=C(O)c1ccccc1 [benzoate]			Km (PqsA): 150 µM
Nc1ccccc1/C=C/S(=O)(=O)NC[C@H]1O[C@@H](n2cnc3c(N)ncnc32)[C@H](O)[C@@H]1O [compound 6, Anthranilyl-AVSN]			PqsA inhibition, potency in words (P. aeruginosa PqsA): not as effective
Nc1ncnc2c1ncn2[C@@H]1O[C@H](CNS(=O)(=O)/C=C/c2ccccc2O)[C@@H](O)[C@H]1O [compound 7, Salicyl-AVSN, reference compound]			PqsA inhibition, potency in words (P. aeruginosa PqsA): not as effective
Nc1ncnc2c1ncn2[C@@H]1O[C@H](COS(=O)(=O)NC(=O)c2ccccc2O)[C@@H](O)[C@H]1O [salicyl-AMS, Salicyl-AMS, reference compound]			PqsA inhibition, potency in words (P. aeruginosa PqsA): potency similar to that of the cognate anthranilyl inhibitors; inhibition of quinolone production, in words [1]: less potent inhibitors of quinolone production
Nc1ncnc2c1ncn2[C@@H]1O[C@H](CNS(=O)(=O)NC(=O)c2ccccc2O)[C@@H](O)[C@H]1O [salicyl-AMSN, Salicyl-AMSN, reference compound]			PqsA inhibition, potency in words (P. aeruginosa PqsA): potency similar to that of the cognate anthranilyl inhibitors; inhibition of quinolone production, in words [1]: less potent inhibitors of quinolone production
